Laboratory results published in ChEMBL document CHEMBL1201862, “PubChem BioAssay data set” (2004).
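Dose response: 5 concentrations. Exposure: 48 h. Format: 96-well plates. Endpoint: linear interpolation; highest concentration if not reached. GI50: concentration for 50% inhibition of growth.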 The source made the active and inactive calls. No stated cut-off is given here; in the data, active = GI50 up to about 1.1 µM and inactive = higher.

Assays:
Assay in all cases: DTP human tumour cell line panel, 48 h
DMS-114 = tested on: DMS-114
COLO 205 = tested on: COLO 205
SNB-78 = tested on: SNB-78
OVCAR-5 = tested on: OVCAR-5
DMS-273 = tested on: DMS-273
NCI-H522 = tested on: NCI-H522
SW-620 = tested on: SW-620
Malme-3M = tested on: Malme-3M
DLD-1 = tested on: DLD-1
HL-60 = tested on: HL-60
ACHN = tested on: ACHN
HCC 2998 = tested on: HCC 2998
SK-MEL-28 = tested on: SK-MEL-28
RXF 393 = tested on: RXF 393
NCI-H460 = tested on: NCI-H460
UACC-62 = tested on: UACC-62
SK-MEL-2 = tested on: SK-MEL-2
A498 = tested on: A498
SR = tested on: SR
NCI/ADR-RES = tested on: NCI/ADR-RES

Measured: GI50

Cc1cn(C2CC(O)C(CO)C2C)c(=O)[nH]c1=O (stereo not drawn)
inactive: DMS-114 > 100 µM | COLO 205 > 100 µM | SNB-78 > 100 µM | OVCAR-5 > 100 µM | DMS-273 > 100 µM | NCI-H522 > 100 µM | SW-620 > 100 µM | Malme-3M > 100 µM | DLD-1 > 100 µM | HL-60 > 100 µM | ACHN > 100 µM | HCC 2998 > 100 µM | SK-MEL-28 > 100 µM | RXF 393 > 100 µM | NCI-H460 > 100 µM | UACC-62 > 100 µM | SK-MEL-2 > 100 µM

O[C@@]12Cc3c([nH]c4ccccc34)[C@@H]3Oc4cccc5c4[C@@]31CCN(CC1CC1)[C@@H]2C5
inactive: COLO 205 31.4 µM | A498 25.2 µM | SR 34 µM | OVCAR-5 29 µM | NCI-H522 22.8 µM | SW-620 11.4 µM | Malme-3M 19.5 µM | ACHN 20.4 µM | HCC 2998 17.7 µM | SK-MEL-28 12.7 µM | NCI/ADR-RES 33.4 µM | NCI-H460 46.1 µM | UACC-62 17.2 µM | SK-MEL-2 26.5 µM

c1ccc(CCn2cncn2)cc1
inactive: DMS-114 > 100 µM | COLO 205 > 100 µM | SNB-78 > 100 µM | SR > 100 µM | OVCAR-5 > 100 µM | DMS-273 > 100 µM | NCI-H522 > 100 µM | SW-620 > 100 µM | Malme-3M > 100 µM | DLD-1 > 100 µM | HL-60 > 100 µM | ACHN > 100 µM | HCC 2998 > 100 µM | SK-MEL-28 > 100 µM | NCI-H460 > 100 µM | UACC-62 > 100 µM

O=C1N/C(=N/N=C/c2c[nH]c3ccccc23)N/C1=C\c1cccs1
inactive: COLO 205 > 100 µM | A498 16.2 µM | OVCAR-5 > 100 µM | NCI-H522 > 100 µM | SW-620 > 100 µM | Malme-3M 61.8 µM | HL-60 19.4 µM | ACHN > 100 µM | SK-MEL-28 > 100 µM | RXF 393 75.3 µM | NCI/ADR-RES 55.3 µM | NCI-H460 > 100 µM | UACC-62 73.3 µM | SK-MEL-2 45.5 µM

CNS(=O)(=O)NN(C)S(=O)(=O)c1ccc(F)cc1
inactive: DMS-114 > 100 µM | COLO 205 > 100 µM | A498 > 100 µM | OVCAR-5 > 100 µM | DMS-273 > 100 µM | NCI-H522 > 100 µM | SW-620 > 100 µM | Malme-3M > 100 µM | DLD-1 > 100 µM | HL-60 > 100 µM | ACHN > 100 µM | HCC 2998 > 100 µM | SK-MEL-28 > 100 µM | RXF 393 > 100 µM | NCI-H460 40.7 µM | UACC-62 > 100 µM | SK-MEL-2 > 100 µM

CCSc1nc(N/N=C/c2cccs2)c2cnn(CO)c2n1
inactive: COLO 205 4.73 µM | A498 2.18 µM | SR 5.9 µM | OVCAR-5 13.4 µM | NCI-H522 3.71 µM | SW-620 4.42 µM | Malme-3M 13.8 µM | HL-60 5.15 µM | ACHN 6.07 µM | SK-MEL-28 14.9 µM | RXF 393 3.66 µM | NCI/ADR-RES 3.91 µM | NCI-H460 5.11 µM | UACC-62 10.4 µM | SK-MEL-2 10.6 µM

COc1cc2c(cc1OC)-c1cc3ccccc3c[n+]1CC2
inactive: COLO 205 37.6 µM | SR 68.2 µM | OVCAR-5 > 100 µM | NCI-H522 18.8 µM | SW-620 > 100 µM | Malme-3M 25.4 µM | ACHN > 100 µM | HCC 2998 > 100 µM | SK-MEL-28 > 100 µM | RXF 393 > 100 µM | NCI/ADR-RES > 100 µM | NCI-H460 > 100 µM | UACC-62 > 100 µM | SK-MEL-2 > 100 µM

CCCCCCCCCCCCCCCCCc1cc(Cl)nc(Cl)n1
inactive: SR > 100 µM | OVCAR-5 > 100 µM | SW-620 > 100 µM | Malme-3M > 100 µM | HL-60 50.8 µM | ACHN > 100 µM | HCC 2998 > 100 µM | SK-MEL-28 > 100 µM | RXF 393 > 100 µM | NCI/ADR-RES > 100 µM | NCI-H460 > 100 µM | UACC-62 > 100 µM | SK-MEL-2 > 100 µM

N#Cc1ccc(-c2nc(C#N)c(N)o2)cc1
inactive: COLO 205 > 10 µM | SR > 10 µM | NCI-H522 > 10 µM | SW-620 > 10 µM | Malme-3M > 10 µM | HL-60 > 10 µM | ACHN > 10 µM | HCC 2998 > 10 µM | SK-MEL-28 > 10 µM | RXF 393 > 10 µM | NCI/ADR-RES > 10 µM | NCI-H460 > 10 µM | UACC-62 > 10 µM
